From ChEMBL document CHEMBL4385656, “Ciprofloxacin-1,2,3-triazole-isatin hybrids tethered via amide: Design, synthesis, and in vitro anti-mycobacterial activity evaluation” (Bioorg Med Chem Lett, 2019)
Values after ≈ are worked out from the molar mass of the structure shown.

system: Mycobacterium tuberculosis; assay: Potency index, ratio of MIC for ciprofloxacin to MIC for test compound for anti-mycobacterial activity against isoniazid and rifampicin-resistant Mycobacterium tuberculosis; format: functional

Compound | Ratio
O=C1C(=O)N(Cc2cn(CC(=O)N3CCN(c4cc5c(cc4F)c(=O)c(C(=O)O)cn5C4CC4)CC3)nn2)c2ccccc21 | >=16

system: Mycobacterium tuberculosis; assay: Potency index, ratio of MIC for isoniazid to MIC for test compound for anti-mycobacterial activity against isoniazid and rifampicin-resistant Mycobacterium tuberculosis; format: functional

Compound | Ratio
O=C1C(=O)N(Cc2cn(CC(=O)N3CCN(c4cc5c(cc4F)c(=O)c(C(=O)O)cn5C4CC4)CC3)nn2)c2ccccc21 | >=16

system: Mycobacterium tuberculosis; assay: Anti-mycobacterial activity against isoniazid and rifampicin-resistant Mycobacterium tuberculosis; format: functional

Compound | MIC [µg/mL]
Cc1ccc2c(c1)C(=O)C(=O)N2Cc1cn(CC(=O)N2CCN(c3cc4c(cc3F)c(=O)c(C(=O)O)cn4C3CC3)CC2)nn1 | 2 (≈ 3.26 µM)
O=C(O)c1cn(C2CC2)c2cc(N3CCNCC3)c(F)cc2c1=O [CIPROFLOXACIN] | 2 (≈ 6.04 µM)
O=C1C(=O)N(Cc2cn(CC(=O)N3CCN(c4cc5c(cc4F)c(=O)c(C(=O)O)cn5C4CC4)CC3)nn2)c2ccc(F)cc21 | 1 (≈ 1.62 µM)
CO/N=C1/C(=O)N(Cc2cn(CC(=O)N3CCN(c4cc5c(cc4F)c(=O)c(C(=O)O)cn5C4CC4)CC3)nn2)c2ccccc21 | 8 (≈ 12.7 µM)
CO/N=C1/C(=O)N(Cc2cn(CC(=O)N3CCN(c4cc5c(cc4F)c(=O)c(C(=O)O)cn5C4CC4)CC3)nn2)c2ccc(C)cc21 | 8 (≈ 12.4 µM)
CO[C@H]1/C=C/O[C@@]2(C)Oc3c(C)c(O)c4c(O)c(c(/C=N/N5CCN(C)CC5)c(O)c4c3C2=O)NC(=O)/C(C)=C\C=C\[C@H](C)[C@H](O)[C@@H](C)[C@@H](O)[C@@H](C)[C@H](OC(C)=O)[C@@H]1C [RIFAMPIN] | > 64
CCO/N=C1/C(=O)N(Cc2cn(CC(=O)N3CCN(c4cc5c(cc4F)c(=O)c(C(=O)O)cn5C4CC4)CC3)nn2)c2c(F)cccc21 | 32 (≈ 48.4 µM)
NNC(=O)c1ccncc1 [ISONIAZID] | > 64
CO/N=C1/C(=O)N(Cc2cn(CC(=O)N3CCN(c4cc5c(cc4F)c(=O)c(C(=O)O)cn5C4CC4)CC3)nn2)c2c(F)cccc21 | 32 (≈ 49.5 µM)
CCO/N=C1/C(=O)N(Cc2cn(CC(=O)N3CCN(c4cc5c(cc4F)c(=O)c(C(=O)O)cn5C4CC4)CC3)nn2)c2ccccc21 | 16 (≈ 24.9 µM)
CO/N=C1/C(=O)N(Cc2cn(CC(=O)N3CCN(c4cc5c(cc4F)c(=O)c(C(=O)O)cn5C4CC4)CC3)nn2)c2ccc(F)cc21 | 16 (≈ 24.7 µM)
O=C1C(=O)N(Cc2cn(CC(=O)N3CCN(c4cc5c(cc4F)c(=O)c(C(=O)O)cn5C4CC4)CC3)nn2)c2ccccc21 | 0.12 (≈ 0.2 µM)
CCO/N=C1/C(=O)N(Cc2cn(CC(=O)N3CCN(c4cc5c(cc4F)c(=O)c(C(=O)O)cn5C4CC4)CC3)nn2)c2ccc(C)cc21 | 32 (≈ 48.7 µM)
CCO/N=C1/C(=O)N(Cc2cn(CC(=O)N3CCN(c4cc5c(cc4F)c(=O)c(C(=O)O)cn5C4CC4)CC3)nn2)c2ccc(F)cc21 | 16 (≈ 24.2 µM)
O=C1C(=O)N(Cc2cn(CC(=O)N3CCN(c4cc5c(cc4F)c(=O)c(C(=O)O)cn5C4CC4)CC3)nn2)c2c(F)cccc21 | 2 (≈ 3.24 µM)

system: Mycobacterium tuberculosis; assay: Potency index, ratio of MIC for rifampicin to MIC for test compound for anti-mycobacterial activity against isoniazid and rifampicin-resistant Mycobacterium tuberculosis; format: functional

Compound | Ratio
O=C1C(=O)N(Cc2cn(CC(=O)N3CCN(c4cc5c(cc4F)c(=O)c(C(=O)O)cn5C4CC4)CC3)nn2)c2ccccc21 | >=16
